Data reported in patent publication US20090179638A1, “ASSAY FOR IDENTIFYING INHIBITORS OF NEURONAL APOPTOTIC PATHWAYS” (AEGERA THERAPEUTICS INC., priority 2006, published 2009).

How the values were obtained:
HSP90 [1] = assay: Compound 6-bead pulldown of purified HSP90; assay type: binding; settings: competing compound at 80 μM
Experimental: FIGS. 5B and 5C are photographs of Western blots showing that compound 1 binds HSP90 and causes HSF1-dependent expression of HSP70 and HSP25. A: Wild-type or HSF1 null MEFs were transfected with pGL3B-HSP70, an HSP70 promoter reporter construct, or parental vector (pGL3B), then treated with 40 μM of compound 1 for 24 hours and analyzed for luciferase content as described in Materials and Methods (*=P<0.005 relative to 0 compound 1; **=P<0.005 relative to wild-type MEFs treated with 40 uM compound 1. B: Wild-type or HSF1 null MEFs were treated with increasing concentrations of compound 1 for 24 hours, cells were lysed, normalized for protein content, and analyzed for levels of HSP70, HSP40, and HSP25 as indicated. C: Compound 6-conjugated Sepharose beads were incubated with purified HSP90 for 2 hours, washed, and levels of bound HSP90 were analyzed by immunoblot. Con=Control beads, Alone=Compound 6-beads alone, Comp=[…]+competing compound 1 (at 80 μM). Experiments in Panel A-C were performed three times with identical results.
Compound 6 was coupled with Affi-Gel 10 beads (BioRad) and used as an affinity reagent in pulldown experiments. Beads were incubated either with whole cell lysates or with purified HSP90, washed extensively, and bound proteins were then eluted and analyzed by SDS-PAGE and immunoblotting. […]

JNK = JNK activity in vitro; assay type: biochemical; settings: data not shown
HSP90 [2] = assay: ATP-Sepharose interaction assay; assay type: binding; settings: purified HSP90 pre-incubated with substance
Experimental: Bound HSP90 was eluted HSP90 content was determined by immunoblotting.
ATP-Sepharose Interaction Assays. These were performed essentially as described in (Grenert et al., 1997). […] 25 ul of ATP-sepharose beads were added and the reactions were incubated for 30 min at 30° C. After thorough washing with ice-cold incubation buffer, bound proteins were eluted in sample buffer and HSP90 content was determined by immunoblotting.

`NS(=O)(=O)c1nn2cc(-c3ccccc3)nc2s1` [Compound 1] was tested. Which “effect of excess unbound compound on compound 6-bead:HSP90 interaction” value (HSP90 [1]) did it give?
Its value is “strongly attenuated”.

What about the “effect on JNK activity in vitro” value (JNK) of the same molecule?
Its value is “no effect”.

And the “binding of HSP90 to gATP-Sepharose” value (HSP90 [2])?
The value was “does not decrease the amount of HSP90 bound to gATP-Sepharose but rather increased their association”.
